Measurements published in PubChem BioAssay (NCI).
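Tested at 5 concentrations; 48 h exposure; 96-well plates; endpoints linearly interpolated, else capped at highest concentration. GI50: concentration for 50% inhibition of growth. The concentration for full growth arrest is given as TGI.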 Square brackets hold non-standard residues; d marks the D form. Peptide text beside a SMILES is read from it. * marks the point of attachment. ξ: configuration not given here. Boc = CC(C)(C)OC(=O)*; ξV = CC(C)C(N)C(=O)O; OBn = c1ccc(CO*)cc1

Key:
Assay in all cases: inhibition of tumour cell growth, NCI panel, 48 h
[1] = system: OVCAR-8 ovarian
[2] = system: UACC-62 melanoma
[3] = system: MCF7 breast
[4] = system: IGROV1 ovarian
[5] = system: NCI-H23 lung
[6] = system: OVCAR-3 ovarian
[7] = system: HL-60(TB) leukemia
[8] = system: ACHN renal
[9] = system: MDA-MB-231 breast
[10] = system: RPMI-8226 leukemia
[11] = system: SN12C renal
[12] = system: SK-MEL-2 melanoma
[13] = system: SR leukemia
[14] = system: OVCAR-5 ovarian
[15] = system: PC-3 prostate
[16] = system: DU-145 prostate
[17] = system: MOLT-4 leukemia
[18] = system: 786-0 renal
[19] = system: NCI-H226 lung
[20] = system: SK-MEL-5 melanoma
[21] = system: UO-31 renal
[22] = system: TK-10 renal
[23] = system: NCI-H460 lung
[24] = system: HS 578T breast
[25] = system: CAKI-1 renal
[26] = system: BT-549 breast
[27] = system: HCC-2998 colon
[28] = system: UACC-257 melanoma
[29] = system: CCRF-CEM leukemia
[30] = system: SW-620 colon
[31] = system: A549 NSCLC
[32] = system: K-562 leukemia
[33] = system: MDA-MB-435
[34] = system: SF-539 CNS
[35] = system: NCI/ADR-RES ovarian
[36] = system: SF-295 CNS
[37] = system: M14 melanoma
[38] = system: NCI-H522 lung
[39] = system: SF-268 CNS
[40] = system: EKVX NSCLC
[41] = system: HOP-92 NSCLC
[42] = system: HCT-15 colon
[43] = system: KM12 colon

SMILES: O=C(Oc1ccc(Cl)cc1)c1ccccc1Nc1ccnc(C(F)(F)F)c1
- GI50 [1]: 4.04 µM
- TGI [1]: 35.5 µM
- GI50 [2]: 2610 nM
- TGI [2]: 8.44 µM
- GI50 [3]: 3.73 µM
- TGI [3]: 14.7 µM
- GI50 [4]: 15.3 µM
- TGI [4]: > 100 µM
- GI50 [5]: 2820 nM
- TGI [5]: 8.55 µM
- GI50 [6]: 11.6 µM
- TGI [6]: 26.4 µM
- GI50 [7]: 6.48 µM
- TGI [7]: > 100 µM
- GI50 [8]: 10.8 µM
- TGI [8]: 33.1 µM
- GI50 [9]: 1780 nM
- TGI [9]: 7.04 µM
- GI50 [10]: 2870 nM
- TGI [10]: 8.28 µM
- GI50 [11]: 2950 nM
- TGI [11]: 8.72 µM
- GI50 [12]: 20.2 µM
- TGI [12]: > 100 µM
- GI50 [13]: 3.79 µM
- TGI [13]: > 100 µM
- GI50 [14]: 25.6 µM
- TGI [14]: 84.4 µM
- GI50 [15]: 17 µM
- TGI [15]: 63.2 µM
- GI50 [16]: 18.7 µM
- TGI [16]: 39.8 µM
- GI50 [17]: > 100 µM
- TGI [17]: > 100 µM
- GI50 [18]: 2710 nM
- TGI [18]: 9.75 µM
- GI50 [19]: 2940 nM
- TGI [19]: 16.8 µM
- GI50 [20]: 16.8 µM
- TGI [20]: 36.2 µM
- GI50 [21]: 28.2 µM
- TGI [21]: > 100 µM
- GI50 [22]: 17.9 µM
- TGI [22]: 48.9 µM
- GI50 [23]: 10.5 µM
- TGI [23]: 35.4 µM
- GI50 [24]: 30.3 µM
- TGI [24]: 93.9 µM
- GI50 [25]: 2320 nM
- TGI [25]: 4.67 µM
- GI50 [26]: 14.9 µM
- TGI [26]: 41.2 µM
- GI50 [27]: 13.6 µM
- TGI [27]: 27.6 µM
- GI50 [28]: 4.51 µM
- TGI [28]: 24.4 µM
- GI50 [29]: 4.94 µM
- TGI [29]: 52.8 µM
- GI50 [30]: 6.66 µM
- TGI [30]: 63.3 µM
- GI50 [31]: 15.3 µM
- TGI [31]: 52.3 µM
- GI50 [32]: 3.65 µM
- TGI [32]: 87.8 µM
- GI50 [33]: 2150 nM
- TGI [33]: 4.87 µM
- GI50 [34]: 15 µM
- TGI [34]: 32.7 µM
- GI50 [35]: 16.2 µM
- TGI [35]: 49.5 µM
- GI50 [36]: 62.8 µM
- TGI [36]: > 100 µM
- GI50 [37]: 2120 nM
- TGI [37]: 4.53 µM
- GI50 [38]: 4.22 µM
- TGI [38]: 52.2 µM
- GI50 [39]: 4.32 µM
- TGI [39]: 17.4 µM
- GI50 [40]: 25.2 µM
- TGI [40]: 64 µM
- GI50 [41]: 20.8 µM
- TGI [41]: > 100 µM
- GI50 [42]: 2070 nM
- TGI [42]: 5.13 µM
- GI50 [43]: 8.94 µM
- TGI [43]: 23.1 µM

SMILES: CC(C)C(NC(=O)CNC(=O)OC(C)(C)C)C(=O)OCc1ccccc1 (stereo not drawn) (Boc-Gly-[ξV]-OBn)
- GI50 [7]: 86.5 µg/mL
- GI50 [32]: 30.4 µg/mL
